“And” between values parts separate entries of the source, which are not always exact repeats. Identical values can stand only once.
Tests used:
E. coli (Juhl) [1] = assay: serial dilution in synthetic medium in test tubes, MIC and F.I.C. index (Table II); type: cell-based; details: for MIC: Escherichia coli
Protocol: The halogenated peptides alone, the antibiotic alone or mixtures of the halogenated peptides and selected antibiotics are prepared in sterile concentrated aqueous solutions at the desired ratios. Serial dilutions are made to give a range of concentrations of the test substances. Samples of the dilutions are mixed with an appropriate sterile synthetic medium in test tubes. The tubes are then inoculated with an appropriate test organism and incubated at 35°-37° C. for 16-20 hours. Minimum inhibitory concentrations, i.e., that concentration which inhibits visible growth, are read and the fractional inhibitory concentration indices (F.I.C.) are calculated. In all instances, E. coli (Juhl) was used as the infecting microorganism.

E. coli (Juhl) [2] = assay: mouse protection test, CD50 (Table III); type: in vivo
Protocol: (§1) Charles River mice, weighing approximately 20 g. each, are infected intraperitoneally with 10-100 times the LD of the infecting organism. At predetermined intervals post-infection, e.g., 1 and 5 hours, mice are dosed subcutaneously with graded doses of the halogenated peptide, antibiotic and combination thereof. The number of mice surviving each treatment for 7 days post-infection is observed and the CD50 is calculated. The fractional inhibitory concentration (F.I.C.) for each combination is calculated in the usual manner.
(§2) In this table, the following infecting microorganisms were used:
(§3) The infecting organisms are listed by the above code; the compounds are listed by their Example number. In all instances, the dipeptide and D-cycloserine were tested at a ratio of 10:1. The CD50 combination column lists only the amount of peptide present; the D-cycloserine amount is 10% of the listed amount.

S. aureus (Smith) = assay: mouse protection test, CD50 (Table III); type: in vivo; details: for F.I.C. Index / CD50 (mg/kg) Combination: S. aureus (Smith) in mice, dipeptide:D-cycloserine 10:1; for CD50 (mg/kg) Combination: amount of peptide only listed, D-cycloserine is 10% of it; for CD50 (mg/kg) Peptide: mice infected i.p. with S. aureus (Smith), dosed subcutaneously, 7 days survival, peptide alone
Protocol: as §1, §2, §3

Strep. pyrogenes (C 203) = assay: mouse protection test, CD50 (Table III); type: in vivo; details: mice infected i.p. with Strep. pyrogenes (C 203); dosed subcutaneously; 7 days survival; D-cycloserine alone
Protocol: as §1, §2
Strep. pyrogenes (C 203).
as §3

E. coli (Juhl) [3] = assay: two-fold agar dilution assay, M.I.C.; type: cell-based; details: for MIC: Escherichia coli, substance alone, agar dilution, read-out: minimum inhibitory concentration (M.I.C.)
Source text: (§4) In a two-fold agar dilution assay with E. coli (Juhl) and E. coli 6880 as test organisms, compounds of Examples 1 and 2 show a minimum inhibitory concentration (M.I.C.) of >800 ppm. […] The combination of the new peptide with D-cycloserine produces the following M.I.C. test results.

E. coli 6880 = assay: two-fold agar dilution assay, M.I.C.; type: cell-based; details: for MIC: Escherichia coli, substance alone, agar dilution, read-out: minimum inhibitory concentration (M.I.C.)
Source text: as §4

E. coli (305-101) = assay: mouse protection test, CD50 (Table III); type: in vivo; details: mice infected i.p. with E. coli (305-101); dosed subcutaneously; 7 days survival; D-cycloserine alone
Protocol: as §1, §2, §3

[4] = combination with D-cycloserine, ratio Pep/Antib. 1:1
[5] = combination with D-cycloserine, ratio Pep/Antib. 1:8
[6] = combination with carbencillin, ratio Pep/Antib. 1:1
[7] = combination with carbencillin, ratio Pep/Antib. 1:8
[8] = peptide alone, E. coli (Juhl), 35-37° C., 16-20 hours
[9] = combination with D-cycloserine, ratio Pep/Antib. 8:1
[10] = combination with cephalothin, ratio Pep/Antib. 1:1
[11] = peptide:D-cycloserine ratio 1:1
[12] = peptide:D-cycloserine ratio 1:8
[13] = peptide:D-cycloserine ratio 8:1

CC(C)C[C@H](N)C(=O)N[C@H](CF)C(=O)O [Example 4, L-Leu-βF-D-Ala]
F.I.C. Index (E. coli (Juhl) [1]; [4]): 0.008 | MIC ppm Pep/Antib., antibiotic part (E. coli (Juhl) [1]; [4]): 0.1 ppm | MIC ppm Pep/Antib., peptide part (E. coli (Juhl) [1]; [4]): 0.1 ppm | F.I.C. Index (E. coli (Juhl) [1]; [5]): 0.06 | MIC ppm Pep/Antib., antibiotic part (E. coli (Juhl) [1]; [5]): 0.78 ppm | MIC ppm Pep/Antib., peptide part (E. coli (Juhl) [1]; [5]): 0.1 ppm | F.I.C. Index (E. coli (Juhl) [1]; [6]): 0.25 | MIC ppm Pep/Antib., antibiotic part (E. coli (Juhl) [1]; [6]): 1.56 ppm | MIC ppm Pep/Antib., peptide part (E. coli (Juhl) [1]; [6]): 1.56 ppm | F.I.C. Index (E. coli (Juhl) [1]; [7]): 2.0 | MIC ppm Pep/Antib., antibiotic part (E. coli (Juhl) [1]; [7]): 12.5 ppm | MIC ppm Pep/Antib., peptide part (E. coli (Juhl) [1]; [7]): 1.56 ppm | MIC ppm Peptide (E. coli (Juhl) [1]; [8]): > 200 ppm and > 100 ppm | F.I.C. Index (E. coli (Juhl) [2]; E. coli (Juhl) in mice, dipeptide:D-cycloserine 10:1): 0.41 | CD50 (mg/kg) Combination (E. coli (Juhl) [2]; E. coli (Juhl) in mice, dipeptide:D-cycloserine 10:1, amount of peptide only listed, D-cycloserine is 10% of it): 10.1 mg/kg | CD50 (mg/kg) Peptide (E. coli (Juhl) [2]; mice infected i.p. with E. coli (Juhl), dosed subcutaneously, 7 days survival, peptide alone): 25.9 mg/kg | F.I.C. Index (S. aureus (Smith)): 0.25 | CD50 (mg/kg) Combination (S. aureus (Smith)): 1.6 mg/kg | CD50 (mg/kg) Peptide (S. aureus (Smith)): 7.4 mg/kg

CC(=O)OCC1=C(C(=O)O)N2C(=O)[C@@H](NC(=O)Cc3cccs3)[C@H]2SC1 [cephalothin, reference compound]
MIC ppm Antibiotic (E. coli (Juhl) [1]; antibiotic alone, E. coli (Juhl), 35-37° C., 16-20 hours): 6.2 ppm

N[C@@H](CO)C(=O)N[C@H](CF)C(=O)O [Example 8, L-Ser-βF-D-Ala]
F.I.C. Index (E. coli (Juhl) [1]; [4]): 0.008 | MIC ppm Pep/Antib., antibiotic part (E. coli (Juhl) [1]; [4]): 0.1 ppm | MIC ppm Pep/Antib., peptide part (E. coli (Juhl) [1]; [4]): 0.1 ppm | F.I.C. Index (E. coli (Juhl) [1]; [5]): 0.03 | MIC ppm Pep/Antib., antibiotic part (E. coli (Juhl) [1]; [5]): 0.39 ppm | MIC ppm Pep/Antib., peptide part (E. coli (Juhl) [1]; [5]): 0.05 ppm | F.I.C. Index (E. coli (Juhl) [1]; [9]): 0.004 | MIC ppm Pep/Antib., antibiotic part (E. coli (Juhl) [1]; [9]): 0.05 ppm | MIC ppm Pep/Antib., peptide part (E. coli (Juhl) [1]; [9]): 0.39 ppm | MIC ppm Peptide (E. coli (Juhl) [1]; [8]): > 800 ppm | F.I.C. Index (S. aureus (Smith)): 0.13 | CD50 (mg/kg) Combination (S. aureus (Smith)): 5.2 mg/kg | CD50 (mg/kg) Peptide (S. aureus (Smith)): 48 mg/kg

NCC(=O)N[C@H](CF)C(=O)O [Example 10, Gly-βF-D-Ala]
F.I.C. Index (S. aureus (Smith)): 0.27 | CD50 (mg/kg) Combination (S. aureus (Smith)): 4.7 mg/kg | CD50 (mg/kg) Peptide (S. aureus (Smith)): 19 mg/kg

N[C@@H]1CON=C1O [D-cycloserine, reference compound]
CD50 (mg/kg) Cycloserine (Strep. pyrogenes (C 203)): > 100 mg/kg | MIC (E. coli (Juhl) [3]): 12.5 µg/mL | MIC (E. coli 6880): 6.2 µg/mL | CD50 (mg/kg) Cycloserine (E. coli (305-101)): 63 mg/kg

C[C@H](N)C(=O)N[C@H](CCl)C(=O)O [Example 2, L-alanyl-β-chloro-D-alanine]
MIC (E. coli (Juhl) [1]; combination with D-cycloserine, ratio Pep/Antib. 1:1, read-out: MIC ppm Pep/Antib., peptide part): 0.78 µg/mL | MIC (E. coli (Juhl) [1]; combination with D-cycloserine, ratio Pep/Antib. 1:8, read-out: MIC ppm Pep/Antib., peptide part): 0.2 µg/mL | MIC (E. coli (Juhl) [1]; combination with cephalothin, ratio Pep/Antib. 1:1, read-out: MIC ppm Pep/Antib., peptide part): 3.1 µg/mL | MIC (E. coli (Juhl) [1]; peptide alone, E. coli (Juhl), 35-37° C., 16-20 hours, read-out: MIC ppm Peptide): > 800 µg/mL | F.I.C. Index (E. coli (Juhl) [1]; [4]): 0.06 | MIC ppm Pep/Antib., antibiotic part (E. coli (Juhl) [1]; [4]): 0.78 ppm | F.I.C. Index (E. coli (Juhl) [1]; [5]): 0.12 | MIC ppm Pep/Antib., antibiotic part (E. coli (Juhl) [1]; [5]): 1.56 ppm | F.I.C. Index (E. coli (Juhl) [1]; [10]): 0.50 | MIC ppm Pep/Antib., antibiotic part (E. coli (Juhl) [1]; [10]): 3.1 ppm | MIC (E. coli (Juhl) [3]): > 800 µg/mL | M.I.C. of combination, D-cycloserine part (E. coli (Juhl) [3]; [11]): 0.78 ppm | M.I.C. of combination, peptide part (E. coli (Juhl) [3]; [11]): 0.78 ppm | M.I.C. of combination, D-cycloserine part (E. coli (Juhl) [3]; [12]): 1.56 ppm | M.I.C. of combination, peptide part (E. coli (Juhl) [3]; [12]): 0.2 ppm | M.I.C. of combination, D-cycloserine part (E. coli (Juhl) [3]; [13]): 0.78 ppm | M.I.C. of combination, peptide part (E. coli (Juhl) [3]; [13]): 0.62 ppm | MIC (E. coli 6880): > 800 µg/mL | M.I.C. of combination, D-cycloserine part (E. coli 6880; [11]): 0.78 ppm | M.I.C. of combination, peptide part (E. coli 6880; [11]): 0.78 ppm | M.I.C. of combination, D-cycloserine part (E. coli 6880; [12]): 0.78 ppm | M.I.C. of combination, peptide part (E. coli 6880; [12]): 0.1 ppm | M.I.C. of combination, D-cycloserine part (E. coli 6880; [13]): 0.39 ppm | M.I.C. of combination, peptide part (E. coli 6880; [13]): 3.1 ppm | F.I.C. Index (S. aureus (Smith)): 0.34 | CD50 (mg/kg) Combination (S. aureus (Smith)): 35 mg/kg | CD50 (mg/kg) Peptide (S. aureus (Smith)): 170 mg/kg

CNCC(=O)N[C@H](CF)C(=O)O [Example 11, Sar-βF-D-Ala]
F.I.C. Index (S. aureus (Smith)): 0.24 | CD50 (mg/kg) Combination (S. aureus (Smith)): 6.2 mg/kg | CD50 (mg/kg) Peptide (S. aureus (Smith)): 29 mg/kg

COC(=O)[C@@H](CF)NC(=O)[C@H](C)N.Cl [Example 15, L-Ala-βF-D-Ala-OMe.HCl]
F.I.C. Index (S. aureus (Smith)): 0.32 | CD50 (mg/kg) Combination (S. aureus (Smith)): 5.5 mg/kg | CD50 (mg/kg) Peptide (S. aureus (Smith)): 18 mg/kg

CC(C)[C@H](N)C(=O)N[C@H](CF)C(=O)O [Example 3, L-Val-βF-D-Ala]
F.I.C. Index (S. aureus (Smith)): 0.15 | CD50 (mg/kg) Combination (S. aureus (Smith)): 1.0 mg/kg | CD50 (mg/kg) Peptide (S. aureus (Smith)): 10 mg/kg

— patent publication US4264590A, “Antibacterial peptide” (Abbott Laboratories, priority 1980, dated 1981)
